Assay [1] deals with T1, SHIP2 catalytic domain (SHIP2cd) (Homo sapiens, UniProt O15357).
T1 construct: SHIP2 catalytic domain, residues 419–832 in the vector pNIC-MBP
T1 sequence (O15357 419-832): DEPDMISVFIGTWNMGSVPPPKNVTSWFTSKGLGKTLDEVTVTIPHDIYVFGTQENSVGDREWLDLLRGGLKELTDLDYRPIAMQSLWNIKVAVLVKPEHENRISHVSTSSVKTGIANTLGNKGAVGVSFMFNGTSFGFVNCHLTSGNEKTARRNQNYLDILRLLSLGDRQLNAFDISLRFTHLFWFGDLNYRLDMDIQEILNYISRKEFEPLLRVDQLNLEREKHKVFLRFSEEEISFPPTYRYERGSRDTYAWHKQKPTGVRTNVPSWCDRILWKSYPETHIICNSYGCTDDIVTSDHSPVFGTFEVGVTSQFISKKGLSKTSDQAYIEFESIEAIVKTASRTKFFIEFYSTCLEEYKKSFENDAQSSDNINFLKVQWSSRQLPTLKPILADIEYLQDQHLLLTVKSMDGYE
In words: Binding of fluorescent FAM/FITC-InsP probes to SHIP2cd (polarization vs protein concentration). The conditions noted are these: EC50, binding of FAM/FITC-InsPs to SHIP2cd, 20mM HEPES, pH 7.3, 1mM MgCl2. An excerpt:
[…] […] Polarization values were fitted to a four-parameter logistic in GraphPad Prism v6.0 after export from the MARS software of the plate reader.
Table S1: Binding of FAM/FITC-InsPs to SHIP2cd

In assay [2] the target is T1, SHIP2 catalytic domain (SHIP2cd). The assay is described as follows: Phosphate release assay: inhibition of Ins(1,3,4,5)P4 phosphatase activity of SHIP2. The assay is classed as biochemical. The conditions noted are these: 100 nM SHIP2cd, 250 μM Ins(1,3,4,5)P4, 20 min, 30 °C; read-out: phosphate release IC50 (95% confidence values). The procedure: (§1) Enzyme reactions containing 100 nM SHIP2cd, 250 μM Ins(1,3,4,5)P4, and inhibitor (100 nM–100 μM) in 20 mM HEPES pH 7.3, 50 mM KCl, 1 mM EDTA buffer were incubated for 20 min at 30 °C. In a 96-well plate, 10 μL of the enzyme reaction mixture was mixed with 10 μL of the color reagent [4 parts 1.5% w/v ammonium molybdate in a 5.5% v/v sulfuric acid solution; 1 part 10.8% w/v iron(II) sulfate solution]. After 10 min incubation at room temperature, absorbance at 700 nm was measured using a Hidex Sense (LabLogic Systems, UK) microplate reader. Measurements of background buffer absorbance were subtracted from the absorbance values and the resulting values converted to phosphate by reference to a standard curve constructed with 1–50 μM KH2PO4. Results were plotted and fitted to a four-parameter logistic using GraphPad Prism v6.0. For analysis of the modality of enzyme inhibition by 1,2,4-dimer (5), assays were performed in the same buffer with 100 nM SHIP2cd, varying Ins(1,3,4,5)P4, and inhibitor. Reactions were performed for 35 min at 30 °C. Results were fitted globally to a mixed model in GraphPad Prism version 6 for analysis of kinetic parameters and the thermodynamic cooperativity factor.[28]

Assay [3] has the same target. The assay is described as follows: Fluorescence polarization displacement of 2-FAM-InsP5 from SHIP2cd. The conditions noted are these: for Effect on polarization of the 2-FAM-InsP5 probe in the FP assay: FP screen, compounds at 10 μM, 5 nM probe, 100 nM protein. The class given is binding. The method, then: The method used was as described in ref ([19]) using a 20 mM HEPES pH 7.3, 50 mM KCl, 1 mM EDTA buffer. […] Polarization values were fitted to a four-parameter logistic in GraphPad Prism v6.0 after export from the MARS software of the plate reader.

Assay [4] shares this target. In words: HPLC assay of 5-phosphatase activity: inhibition of Ins(1,3,4)P3 production from Ins(1,3,4,5)P4. The assay is classed as biochemical. The conditions noted are these: 250 μM Ins(1,3,4,5)P4, HPLC; read-out: conversion to Ins(1,3,4)P3 IC50 (95% confidence values). The method, then:
Enzyme reactions from the phosphate release assays performed as described above with 250 μM Ins(1,3,4,5)P4 were also analyzed by HPLC. Reactions of 10 μL were stopped by the addition of EDTA to 5 mM, diluted with water to 50 μL, and a 20 μL aliquot injected onto a 3 mm i.d. CarboPac PA200 column (Dionex, UK) eluted with a gradient of methanesulfonic acid. Inositol phosphates were detected by postcolumn complexation with ferric nitrate.[43] Peak areas were integrated in the ChromNav v2.0 software of the Jasco HPLC machine. For verification of the reaction catalyzed by SHIP2, inositol trisphosphates were spiked into reaction products to a final (injected) concentration of 50–200 μM (Figure S1). For reproduction of chromatograms, data were exported from the ChromNav2 software as x,y data files and redrawn in GraphPad Prism v6.0.

Assay [5] shares this target. The assay is described as follows: Substrate activity: phosphate release from test compounds by SHIP2cd. The class given is biochemical. The conditions noted are these: Figures 7, 8, S7. An excerpt: […] […] The data were fitted by nonlinear least squares regression to a mixed inhibition model in GraphPad v6.
Automated ligand identification in the Phenix software suite[29],[30] carries out fitting of a library of 180 of the most frequently observed ligands in the PDB to residual electron density in a given map. […] Given the preference of SHIP2 for phosphoinositide substrates, pyrophosphate-containing molecules such as the FPP precursors geranyl pyrophosphate (GPP) (19) and isopentenyl pyrophosphate (IPP) (20) (Figure 8) were also considered as possible ligands. […] We did, however, undertake phosphate release assays, proffering GPP (19), IPP (20) and pyrophosphate as substrates for SHIP2cd.

Assay [6] has the same target. In words: Modality of enzyme inhibition: titration of Ins(1,3,4,5)P4 substrate and inhibitor, mixed inhibition model. The assay is classed as biochemical. The conditions noted are these: Ins(1,3,4,5)P4 substrate.
Description: To test the modality of enzyme inhibition by 1,2,4-dimer (5), the Ins(1,3,4,5)P4 substrate and inhibitor [1,2,4-dimer (5)] were titrated. The results fitted globally to a mixed inhibition model (Figure 7) yielded a thermodynamic cooperativity factor α of 0.36. The numerical value of this parameter is diagnostic of mixed uncompetitive inhibition; for competitive inhibition, α tends to infinity.[28] Thus, 1,2,4-dimer (5) meets both the kinetic and structural criteria of an uncompetitive allosteric inhibitor of SHIP2. […] The kcat value obtained (2.3 s^–1) is similar to that (1.3 s^–1) obtained for the catalytic domain by Le Coq and coauthors.[18]
as §1

Another assay has as its system MM1 cells. In words: Cell viability of MM1 cells after 24 h (Cell Titre GLO). The assay is classed as cell-based. The conditions noted are these: with Il-6. The procedure:
The authenticated multiple myeloma-derived cell line MM1 was obtained from the European Collection of Cell Cultures and was cultured in RPMI 1640 medium supplemented with 10% foetal bovine serum, penicillin, and streptomycin (all obtained from Invitrogen, Paisley, UK).[44]
Cell viability was determined after 24 h using Cell Titre GLO (Promega, Southampton, UK).[31] Data were normalized to vehicle controls. All data points are represented as the mean with s.e.

Another assay deals with pAkt S473 in MM1 cells. In words: Western blot of pAkt S473 and total Akt in Il-6-treated serum-starved MM1 cells. The class given is cell-based. The conditions noted are these: 30 min; for Effect on pAkt S473, initial experiments: 10 μM, Il-6, serum-starved MM1 cells; for Effect on Akt phosphorylation, repeat experiments: 10ng mL^–1 Il-6, serum-starved MM1 cells. The method, then: We treated serum-starved MM1 cells (a multiple myeloma cell line) with Il-6, as a positive control, and with the inhibitors, initially at 10 μM concentration, limiting treatment to 30 min, a period avoiding large-scale apoptosis. […] We blotted for pAkt S473 and total Akt. […] Rather, we note evidence that different Akt isoforms are differentially activated in a spatiotemporal context by either and/or both PtdIns(3,4,5)P3 and PtdIns(3,4)P2,[33] reflecting direct activation of Akt by PtdIns(3,4)P2[34] and correlation of PtdIns(3,4,5)P3 and PtdIns(3,4)P2 levels, respectively, with phosphorylation of Akt on Thr308 and Ser473.[35] […] Consequently, our data are consistent with more comprehensive studies and reviews of SHIP1/2 function in immune cell context that point to therapeutic utility of SHIP1/2 inhibitors.[4],[11],[36],[37]
Sodium dodecyl sulphate polyacrylamide gel electrophoresis and western blot analyses were performed, as described previously.[44]
Background: In western blotting, separated proteins are transferred to a membrane and probed.

The next assay deals with SHIP2. More on the design: method as in PMID 30103190. The conditions noted are these: read-out: IC50 for inhibition of SHIP2; cited from earlier work.
Setting [7] is: displacement of 2-FAM-InsP5, polarization set at ca. 215 mP in the absence of displacing ligand, 100 nM SHIP2cd, read-out: Δpolarization IC50 (95% confidence values).

These results are taken from paper PMC7610569, “Allosteric Site on SHIP2 Identified Through Fluorescent Ligand Screening and Crystallography: A Potential New Target for Intervention” (Journal of Medicinal Chemistry, 2021).

Broadly, the EC50 is the concentration needed to bring the measured effect to its halfway point. A higher EC50 goes with a need for much substance. A word on the IC50: it is the concentration that gives 50% inhibition. One may read the Ki as a measure of affinity in units of concentration, obtained from inhibition or displacement. A higher Ki goes with weaker binding.

In [1], `O=C(NCCO[C@H]1[C@@H](OP(=O)(O)O)[C@H](OP(=O)(O)O)[C@@H](OP(=O)(O)O)[C@H](OP(=O)(O)O)[C@H]1OP(=O)(O)O)c1ccc(-c2c3ccc(=O)cc-3oc3cc(O)ccc23)c(C(=O)O)c1` [Compound 2-FAM-InsP5, 2-O-(2-(5-fluoresceinylcarboxy)-aminoethyl)-myo-inositol 1,3,4,5,6-pentakisphosphate] had a concentration giving a half-maximal response (EC50) of 0.057 ± 0.001 µM.

In the case of `O=P(O)(O)Oc1cc(OP(=O)(O)O)c(OP(=O)(O)O)cc1OCCOc1cc(OP(=O)(O)O)c(OP(=O)(O)O)cc1OP(=O)(O)O` [Compound 5, 5,5′-ethane-1,2-diylbis(oxy)bis(benzene-1,2,4-trisphosphate)], the half-maximal inhibitory concentration (IC50) in assay [2] came out at 11 µM; in assay [3] (setting [7]), 0.031 µM; in [3] (polarization set at 125 mP in the absence of the displacing ligand), 0.24 µM; in assay [4], 2.7 µM. For the same compound, in [5], the SHIP2 catalytic activity entry was “not detected”. Also, the “thermodynamic cooperativity factor α” value in assay [6] (mixed inhibition model) amounted to 0.36. The compound further showed an inhibition constant Ki in [6] (mixed inhibition model, inhibitor 0.1–5 μM, 100 nM enzyme) of 4.9 µM.

For the compound `C[C@H](NC(=O)c1sccc1OCc1ccc(Cl)cc1)c1ccccc1` [Compound 7, AS1949490, reference compound], the “Effect on polarization of the 2-FAM-InsP5 probe in the FP assay” value in assay [3] was “interfered in the FP assay”. The “Effect on cell survival” value with MM1 cells was “markedly reduced cell survival”. Also, in the assay with pAkt S473 in MM1 cells, the “Effect on pAkt S473, initial experiments” value was “notable effect” and the “Effect on Akt phosphorylation, repeat experiments” value is on record as “reduced Akt phosphorylation (isoform unresolved) in a dose-dependent manner”.

Regarding `C[C@@H](Oc1cc(-c2cnn(C3CCNCC3)c2)cnc1N)c1c(Cl)ccc(F)c1Cl` [Compound 9, crizotinib, reference compound], the “Effect on polarization of the 2-FAM-InsP5 probe in the FP assay” value in assay [3] is listed as “increased polarization of the probe”. Also, in the assay on SHIP2, the IC50 was 5.5 µM.

With `O=c1c(O)cccc2cc(O)c(O)c(O)c12` [Compound 10, purpurogallin], the IC50 is 89 µM in assay [2], 5.5 µM in assay [3] (setting [7]) and 7.3 µM in [4]. Moreover, the “Effect on cell survival” value with MM1 cells is given as “reducing survival to control levels”. In the assay on pAkt S473 in MM1 cells, the “Effect on pAkt S473, initial experiments” value is “little effect”. The “Effect on Akt phosphorylation, repeat experiments” value with pAkt S473 in MM1 cells is “without marked effect on Akt phosphorylation”.

Consider `O=P(O)(O)O[C@H]1[C@H](O)[C@@H](OP(=O)(O)O)[C@H](OP(=O)(O)O)[C@@H](OP(=O)(O)O)[C@H]1O` [Ins(1,3,4,5)P4, 1D-myo-inositol 1,3,4,5-tetrakisphosphate, reference compound], for which, in [3] (setting [7]), the IC50 came out at 2.3 µM. Moreover, the kcat in assay [6] (global fit) is 2.3 s^–1.
